Legend:
Assay in all cases: Drug affinity chromatography with c-ponatinib and LC-MS/MS (ponatinib interactome)
Type in all cases: binding
[1] = target: T1, proteins of U2OS cell lysate (Homo sapiens, UniProt Q9UPT5); conditions: EXOC7, Exocyst complex component 7
T1 construct: Proteins enriched by c-ponatinib from U2OS cell lysate; endogenous in cells; host or cells: U2OS cell lysate
How it was run: (§1)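 U2OS cell lysate in NP-40 lysis buffer (2 mg protein per pulldown) was incubated with amine-derivatized NHS beads for 2 h at 4 °C. Bound proteins were washed, eluted with 100 mM formic acid, reduced, alkylated and trypsin-digested, then identified by nano-UPLC–MS/MS on Orbitrap instruments with a 60 min gradient.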

[2] = target: T2, proteins of U2OS cell lysate (Homo sapiens, UniProt Q07065); conditions: CKAP4, Cytoskeleton-associated protein 4
T2 construct: Proteins enriched by c-ponatinib from U2OS cell lysate; endogenous in cells; host or cells: U2OS cell lysate
How it was run: as §1

[3] = target: T3, proteins of U2OS cell lysate (Homo sapiens, UniProt Q9UFG5); conditions: C19orf25, UPF0449 protein C19orf25
T3 construct: Proteins enriched by c-ponatinib from U2OS cell lysate; endogenous in cells; host or cells: U2OS cell lysate
T3 sequence (Q9UFG5 whole entry): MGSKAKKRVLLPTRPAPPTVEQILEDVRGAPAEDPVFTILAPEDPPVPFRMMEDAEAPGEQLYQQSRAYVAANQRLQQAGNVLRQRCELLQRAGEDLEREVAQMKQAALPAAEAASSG
How it was run: as §1

[4] = target: T4, proteins of U2OS cell lysate (Homo sapiens, UniProt P25705); conditions: ATP5A1, ATP synthase subunit alpha, mitochondrial
T4 construct: Proteins enriched by c-ponatinib from U2OS cell lysate; endogenous in cells; host or cells: U2OS cell lysate
How it was run: as §1

[5] = target: T5, proteins of U2OS cell lysate (Homo sapiens, UniProt P61964); conditions: WDR5, WD repeat-containing protein 5
T5 construct: Proteins enriched by c-ponatinib from U2OS cell lysate; endogenous in cells; host or cells: U2OS cell lysate
How it was run: as §1

[6] = target: T6, proteins of U2OS cell lysate (Homo sapiens, UniProt O43353); conditions: RIPK2, Receptor-interacting serine/threonine-protein kinase 2
T6 construct: Proteins enriched by c-ponatinib from U2OS cell lysate; endogenous in cells; host or cells: U2OS cell lysate
How it was run: as §1

[7] = target: T7, proteins of U2OS cell lysate (Homo sapiens, UniProt Q14152); conditions: EIF3A, Eukaryotic translation initiation factor 3 subunit A
T7 construct: Proteins enriched by c-ponatinib from U2OS cell lysate; endogenous in cells; host or cells: U2OS cell lysate
T7 sequence (Q14152 whole entry): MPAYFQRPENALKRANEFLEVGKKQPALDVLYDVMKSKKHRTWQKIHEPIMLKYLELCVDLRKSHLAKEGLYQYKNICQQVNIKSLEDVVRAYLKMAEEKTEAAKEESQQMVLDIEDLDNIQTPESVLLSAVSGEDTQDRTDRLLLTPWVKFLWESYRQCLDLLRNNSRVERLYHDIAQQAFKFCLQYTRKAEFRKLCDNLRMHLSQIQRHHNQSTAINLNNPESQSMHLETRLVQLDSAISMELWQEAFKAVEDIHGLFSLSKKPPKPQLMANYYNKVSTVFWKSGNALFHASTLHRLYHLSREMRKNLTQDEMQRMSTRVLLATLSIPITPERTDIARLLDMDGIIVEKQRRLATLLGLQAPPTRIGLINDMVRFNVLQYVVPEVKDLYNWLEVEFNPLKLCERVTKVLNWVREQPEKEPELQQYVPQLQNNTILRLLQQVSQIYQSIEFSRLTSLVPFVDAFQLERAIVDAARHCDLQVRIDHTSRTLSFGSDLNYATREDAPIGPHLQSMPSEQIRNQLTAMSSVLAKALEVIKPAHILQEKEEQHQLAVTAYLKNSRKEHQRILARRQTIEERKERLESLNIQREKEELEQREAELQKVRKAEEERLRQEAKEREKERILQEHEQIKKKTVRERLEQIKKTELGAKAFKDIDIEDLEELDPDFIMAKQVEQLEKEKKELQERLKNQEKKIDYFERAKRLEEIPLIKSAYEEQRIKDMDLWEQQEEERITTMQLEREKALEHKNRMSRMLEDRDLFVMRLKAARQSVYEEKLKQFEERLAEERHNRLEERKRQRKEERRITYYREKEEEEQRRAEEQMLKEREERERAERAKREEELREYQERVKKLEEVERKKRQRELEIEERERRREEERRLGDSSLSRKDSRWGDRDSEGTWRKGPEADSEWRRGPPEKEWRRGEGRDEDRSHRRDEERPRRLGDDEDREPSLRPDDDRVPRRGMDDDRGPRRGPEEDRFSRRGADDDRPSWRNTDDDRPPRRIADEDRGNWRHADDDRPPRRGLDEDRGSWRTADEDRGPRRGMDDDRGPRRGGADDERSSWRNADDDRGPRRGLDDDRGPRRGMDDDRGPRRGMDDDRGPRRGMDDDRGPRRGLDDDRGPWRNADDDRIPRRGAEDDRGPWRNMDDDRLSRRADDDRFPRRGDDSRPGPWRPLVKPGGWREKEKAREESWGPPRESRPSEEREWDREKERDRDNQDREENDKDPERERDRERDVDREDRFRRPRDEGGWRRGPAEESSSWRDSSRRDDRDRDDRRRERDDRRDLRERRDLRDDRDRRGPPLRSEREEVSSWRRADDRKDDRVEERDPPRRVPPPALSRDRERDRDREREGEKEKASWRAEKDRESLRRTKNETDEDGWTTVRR
How it was run: as §1

[8] = target: T8, proteins of U2OS cell lysate (Homo sapiens, UniProt P26368); conditions: U2AF2, Splicing factor U2AF 65 kDa subunit
T8 construct: Proteins enriched by c-ponatinib from U2OS cell lysate; endogenous in cells; host or cells: U2OS cell lysate
How it was run: as §1

[9] = target: T9, proteins of U2OS cell lysate (Homo sapiens, UniProt P07814); conditions: EPRS, Bifunctional glutamate/proline--tRNA ligase
T9 construct: Proteins enriched by c-ponatinib from U2OS cell lysate; endogenous in cells; host or cells: U2OS cell lysate
How it was run: as §1

[10] = target: T10, proteins of U2OS cell lysate (Homo sapiens, UniProt Q13546); conditions: RIPK1, Receptor-interacting serine/threonine-protein kinase 1
T10 construct: Proteins enriched by c-ponatinib from U2OS cell lysate; endogenous in cells; host or cells: U2OS cell lysate
T10 sequence (Q13546 whole entry): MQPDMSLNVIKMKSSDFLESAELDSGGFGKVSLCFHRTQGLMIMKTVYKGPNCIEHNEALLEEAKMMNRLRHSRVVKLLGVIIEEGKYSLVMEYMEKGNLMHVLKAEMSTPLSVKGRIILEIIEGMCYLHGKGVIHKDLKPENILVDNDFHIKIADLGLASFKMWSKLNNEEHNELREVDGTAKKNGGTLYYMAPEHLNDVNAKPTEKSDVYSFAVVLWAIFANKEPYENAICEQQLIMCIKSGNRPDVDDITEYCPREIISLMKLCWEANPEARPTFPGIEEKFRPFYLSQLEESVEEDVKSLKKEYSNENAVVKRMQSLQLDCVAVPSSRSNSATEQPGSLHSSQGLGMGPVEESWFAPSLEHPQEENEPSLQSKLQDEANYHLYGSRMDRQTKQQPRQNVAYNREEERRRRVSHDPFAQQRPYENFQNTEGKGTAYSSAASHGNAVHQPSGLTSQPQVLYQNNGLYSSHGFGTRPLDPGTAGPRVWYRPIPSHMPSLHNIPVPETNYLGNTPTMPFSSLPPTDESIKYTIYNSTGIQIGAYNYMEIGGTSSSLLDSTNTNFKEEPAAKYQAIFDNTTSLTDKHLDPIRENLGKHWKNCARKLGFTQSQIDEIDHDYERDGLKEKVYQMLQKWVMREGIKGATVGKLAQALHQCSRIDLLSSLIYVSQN
How it was run: as §1

[11] = target: T11, proteins of U2OS cell lysate (Homo sapiens, UniProt P35998); conditions: PSMC2, 26S protease regulatory subunit 7
T11 construct: Proteins enriched by c-ponatinib from U2OS cell lysate; endogenous in cells; host or cells: U2OS cell lysate
T11 sequence (P35998 whole entry): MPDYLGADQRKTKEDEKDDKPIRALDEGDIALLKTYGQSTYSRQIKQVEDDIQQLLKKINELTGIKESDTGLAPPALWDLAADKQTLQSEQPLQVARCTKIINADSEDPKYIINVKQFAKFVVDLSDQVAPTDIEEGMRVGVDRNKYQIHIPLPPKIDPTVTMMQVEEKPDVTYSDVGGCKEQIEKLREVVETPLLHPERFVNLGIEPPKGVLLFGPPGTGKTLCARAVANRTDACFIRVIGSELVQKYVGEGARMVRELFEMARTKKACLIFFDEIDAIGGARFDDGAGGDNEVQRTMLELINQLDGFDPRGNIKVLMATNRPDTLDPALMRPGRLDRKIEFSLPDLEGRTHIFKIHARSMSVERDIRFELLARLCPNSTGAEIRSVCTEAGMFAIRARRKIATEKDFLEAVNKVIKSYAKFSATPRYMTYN
How it was run: as §1

[12] = target: T12, proteins of U2OS cell lysate (Homo sapiens, UniProt P49207); conditions: RPL34, 60S ribosomal protein L34
T12 construct: Proteins enriched by c-ponatinib from U2OS cell lysate; endogenous in cells; host or cells: U2OS cell lysate
How it was run: as §1

[13] = target: T13, proteins of U2OS cell lysate (Homo sapiens, UniProt P49368); conditions: CCT3, T-complex protein 1 subunit gamma
T13 construct: Proteins enriched by c-ponatinib from U2OS cell lysate; endogenous in cells; host or cells: U2OS cell lysate
How it was run: as §1

[14] = target: T14, proteins of U2OS cell lysate (Homo sapiens, UniProt P62333); conditions: PSMC6, 26S protease regulatory subunit 10B
T14 construct: Proteins enriched by c-ponatinib from U2OS cell lysate; endogenous in cells; host or cells: U2OS cell lysate
How it was run: as §1

[15] = target: T15, proteins of U2OS cell lysate (Homo sapiens, UniProt Q00610); conditions: CLTC, Clathrin heavy chain 1
T15 construct: Proteins enriched by c-ponatinib from U2OS cell lysate; endogenous in cells; host or cells: U2OS cell lysate
T15 sequence (Q00610 whole entry): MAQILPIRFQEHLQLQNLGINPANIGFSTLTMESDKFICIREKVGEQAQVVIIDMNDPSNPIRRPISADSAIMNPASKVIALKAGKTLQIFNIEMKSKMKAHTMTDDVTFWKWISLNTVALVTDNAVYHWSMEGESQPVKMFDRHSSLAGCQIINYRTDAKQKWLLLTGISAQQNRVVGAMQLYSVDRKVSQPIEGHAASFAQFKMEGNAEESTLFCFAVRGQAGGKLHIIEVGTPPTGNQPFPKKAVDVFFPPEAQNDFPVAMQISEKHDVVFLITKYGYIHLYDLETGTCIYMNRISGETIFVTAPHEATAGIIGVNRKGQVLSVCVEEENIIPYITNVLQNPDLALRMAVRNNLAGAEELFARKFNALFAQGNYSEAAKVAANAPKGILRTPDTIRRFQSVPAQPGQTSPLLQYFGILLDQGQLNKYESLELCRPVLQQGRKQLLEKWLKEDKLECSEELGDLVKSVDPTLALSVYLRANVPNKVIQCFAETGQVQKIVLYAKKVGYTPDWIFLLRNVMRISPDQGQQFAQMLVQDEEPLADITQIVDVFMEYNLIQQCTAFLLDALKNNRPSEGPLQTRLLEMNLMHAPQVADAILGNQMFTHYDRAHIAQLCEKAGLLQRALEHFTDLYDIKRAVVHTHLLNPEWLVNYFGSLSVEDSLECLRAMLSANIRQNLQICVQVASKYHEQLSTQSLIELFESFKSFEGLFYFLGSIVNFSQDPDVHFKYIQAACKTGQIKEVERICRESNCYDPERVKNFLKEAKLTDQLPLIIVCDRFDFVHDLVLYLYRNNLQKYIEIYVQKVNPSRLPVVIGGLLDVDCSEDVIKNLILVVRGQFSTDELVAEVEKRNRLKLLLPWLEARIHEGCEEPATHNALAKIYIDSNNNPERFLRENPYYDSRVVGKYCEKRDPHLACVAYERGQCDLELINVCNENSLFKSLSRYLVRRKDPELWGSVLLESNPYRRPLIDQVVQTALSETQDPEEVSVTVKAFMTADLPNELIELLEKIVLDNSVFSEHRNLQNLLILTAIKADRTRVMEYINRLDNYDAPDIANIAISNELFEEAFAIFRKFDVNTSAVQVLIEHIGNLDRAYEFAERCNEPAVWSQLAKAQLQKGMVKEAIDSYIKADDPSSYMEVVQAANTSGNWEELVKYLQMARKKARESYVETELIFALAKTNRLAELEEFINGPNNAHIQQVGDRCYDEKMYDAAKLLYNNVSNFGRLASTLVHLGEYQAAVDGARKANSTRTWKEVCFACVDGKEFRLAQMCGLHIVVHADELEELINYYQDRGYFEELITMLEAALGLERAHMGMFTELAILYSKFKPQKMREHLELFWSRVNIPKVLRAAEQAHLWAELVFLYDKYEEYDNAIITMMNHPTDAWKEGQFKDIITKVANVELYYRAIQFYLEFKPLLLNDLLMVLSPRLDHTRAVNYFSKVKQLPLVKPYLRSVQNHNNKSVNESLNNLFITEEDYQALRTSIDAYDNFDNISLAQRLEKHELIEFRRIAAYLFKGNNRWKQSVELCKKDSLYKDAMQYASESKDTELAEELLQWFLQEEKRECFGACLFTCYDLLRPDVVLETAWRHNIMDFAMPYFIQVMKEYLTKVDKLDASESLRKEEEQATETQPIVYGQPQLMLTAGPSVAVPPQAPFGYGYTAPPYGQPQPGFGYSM
How it was run: as §1

[16] = target: T16, proteins of U2OS cell lysate (Homo sapiens, UniProt Q9Y2D5); conditions: AKAP2, A-kinase anchor protein 2
T16 construct: Proteins enriched by c-ponatinib from U2OS cell lysate; endogenous in cells; host or cells: U2OS cell lysate
How it was run: as §1

[17] = target: T17, proteins of U2OS cell lysate (Homo sapiens, UniProt Q13268); conditions: DHRS2, Dehydrogenase/reductase SDR family member 2, mitochondrial
T17 construct: Proteins enriched by c-ponatinib from U2OS cell lysate; endogenous in cells; host or cells: U2OS cell lysate
How it was run: as §1

[18] = target: T18, proteins of U2OS cell lysate (Homo sapiens, UniProt Q9UHB6); conditions: captured protein LIMA1, Rank 120
T18 construct: Proteins enriched by c-ponatinib from U2OS cell lysate; endogenous in cells; host or cells: U2OS cell lysate
How it was run: as §1

[19] = target: T19, proteins of U2OS cell lysate (Homo sapiens, UniProt P09493); conditions: captured protein TPM1, Rank 202
T19 construct: Proteins enriched by c-ponatinib from U2OS cell lysate; endogenous in cells; host or cells: U2OS cell lysate
How it was run: as §1

T1 sequence (Q9UPT5 whole entry): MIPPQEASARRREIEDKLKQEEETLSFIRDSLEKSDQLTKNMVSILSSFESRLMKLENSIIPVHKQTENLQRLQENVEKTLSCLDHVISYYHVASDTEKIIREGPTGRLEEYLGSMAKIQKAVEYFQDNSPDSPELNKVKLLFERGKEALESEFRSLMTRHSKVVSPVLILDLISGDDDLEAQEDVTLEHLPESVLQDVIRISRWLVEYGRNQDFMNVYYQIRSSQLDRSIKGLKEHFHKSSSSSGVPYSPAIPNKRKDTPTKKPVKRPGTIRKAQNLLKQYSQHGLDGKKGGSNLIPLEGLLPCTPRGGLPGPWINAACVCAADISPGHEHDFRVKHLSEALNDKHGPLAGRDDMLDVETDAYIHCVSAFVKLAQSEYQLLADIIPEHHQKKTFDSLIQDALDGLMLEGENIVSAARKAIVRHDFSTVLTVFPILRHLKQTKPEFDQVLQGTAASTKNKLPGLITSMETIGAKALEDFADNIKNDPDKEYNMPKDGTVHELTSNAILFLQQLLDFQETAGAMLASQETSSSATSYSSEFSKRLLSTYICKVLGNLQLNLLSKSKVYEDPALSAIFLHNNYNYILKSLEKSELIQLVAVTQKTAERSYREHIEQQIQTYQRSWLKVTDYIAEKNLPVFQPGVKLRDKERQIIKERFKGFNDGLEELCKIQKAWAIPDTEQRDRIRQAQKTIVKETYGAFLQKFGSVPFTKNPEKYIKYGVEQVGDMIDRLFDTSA

| Compound | Average LFQ PON_WT [1] | Average LFQ PON_WT [2] | Average LFQ PON_WT [3] | Average LFQ PON_WT [4] | Average LFQ PON_WT [5] | Average LFQ PON_WT [6] | Average LFQ PON_WT [7] | Average LFQ PON_WT [8] | Average LFQ PON_WT [9] | Average LFQ PON_WT [10] | Average LFQ PON_WT [11] | Average LFQ PON_WT [12] | Average LFQ PON_WT [13] | Average LFQ PON_WT [14] | Average LFQ PON_WT [15] | Average LFQ PON_WT [16] | Average LFQ PON_WT [17] | Average LFQ intensity [18] | Average LFQ intensity [19] |
| --- | --- | --- | --- | --- | --- | --- | --- | --- | --- | --- | --- | --- | --- | --- | --- | --- | --- | --- | --- |
| Cc1ccc(C(=O)Nc2ccc(CN3CCN(C)CC3)c(C(F)(F)F)c2)cc1C#Cc1cnc2cccnn12 [PON] | 19.8682 | 21.3006 | 20.1092 | 26.7182 | 20.2851 | 27.2483 | 21.466 | 21.5048 | 20.1996 | 25.0833 | 21.2631 | 21.0301 | 23.8873 | 21.4756 | 26.5716 | 19.1683 | 24.0178 | – | – |
| Cc1ccc(C(=O)Nc2ccc(CN3CCN(CCCN)CC3)c(C(F)(F)F)c2)cc1C#Cc1cnc2cccnn12 [c-ponatinib, reference compound] | – | – | – | – | – | – | – | – | – | – | – | – | – | – | – | – | – | 23.0824 | 21.8321 |
